Experimental findings from patent US20240409530A1, “Disubstituted Pyrimidine Compounds for Ketohexokinase Inhibition” (Centennial Therapeutics, LLC, priority 2023, published 2024) are described below.

For one test, the target named is Human recombinant KHK-A (Homo sapiens (Human), UniProt P50053). Put plainly: KHK inhibition assay, recombinant isozyme (coupled pyruvate kinase/LDH, NADH absorbance 340 nm). It is filed as biochemical. Particulars: recombinant isozyme 6 nM, fructose 2 mM, ATP 0.1 mM. The method, then:
(§1) Determination of Human and Rat recombinant KHK-A and KHK-C isozyme IC50 Values
(§2) An assay reagent cocktail was prepared by combining NADH, water, TEA, KCl, MgCl2, PEP, ATP, DTT, coupling enzymes (pyruvate kinase and lactate dehydrogenase, LDH) to final concentrations as shown in Table B.
(§3) To this was added the relevant KHK isozyme to a final concentration of 6 nM. Aliquots of each inhibitor compound were diluted via 5-fold serial dilutions to produce final concentrations ranging from 1000 nM to 0.064 nM. The inhibitor aliquots were added to the assay reagent cocktail containing KHK with fructose (at a concentration of 2 mM) in a 96-well plate. The absorbance at 340 nm was measured via spectrophotometry and inhibition was analyzed using non-linear regression.

In a further test the target is Human recombinant KHK-C (Homo sapiens (Human), UniProt P50053). The test is described as above. It is filed as biochemical. Particulars: recombinant isozyme 6 nM, fructose 2 mM, ATP 0.1 mM. The method, then:
as §1, §2, §3

A further test deals with Rat recombinant KHK-A (Rattus norvegicus (Rat), UniProt Q02974). The description is as above. It is filed as biochemical. Particulars: recombinant isozyme 6 nM, fructose 2 mM, ATP 0.1 mM. As to the method: as §1, §2, §3
A further test concerns the target Rat recombinant KHK-C (Rattus norvegicus (Rat), UniProt Q02974). The description is as above. It counts as biochemical. Particulars: recombinant isozyme 6 nM, fructose 2 mM, ATP 0.1 mM. The method, then: as §1, §2, §3
A further test has as its target human KHK in HepG2 Cells (Homo sapiens (Human), UniProt P50053). As to the kind of experiment: Cell-based potency assay (HepG2 assay), F1P by LC/MS. Particulars: fructose 20 mM, 20 min, F1P produced. The method, then:
Testing inhibition effect of compounds against human KHK in HepG2 Cells
HepG2 cells were grown in RPMI1640 supplemented media on 100 mm plates to near confluency (about 5-8×10^6 cells). The growth media was aspirated and 4 mL trypsin solution (0.25% (w/v)+0.25% (w/v) EDTA) was added, followed by incubation at 37° C. for 5-10 mins. The cells were pelleted and resuspended in 2 mL complete media.
The cells were then placed in a 96 well plate at 20,000-50,000 cells per well and grown for 20-28 hours at 37° C. to allow adherence.
Inhibitor compounds were diluted in DMSO to 50 μM, then serially diluted with MEM media (ThermoFisher). Final inhibitor concentration ranged from 1000 nM to 0.064 nM (5-fold dilution series).
The RPMI medium was removed from the plate of confluent cells. The plate was then incubated for 35 min at 37°, after which were added 0.1 mL of the diluted inhibitor compounds in MEM with fructose, 0.1 mL of MEM media without inhibitor compound or fructose, or trypsin; yielding a final concentration of fructose at 20 mM. The plate was subsequently incubated for 20 min at 37°, then placed on ice to stop the reactions.
Next, 200 μL of cold 80% (v/v) methanol:water was added to all wells, except the controls used to enumerate cell count. The plate was vortexed and cell debris removed by centrifugation. To measure F1P produced, the resulting supernatant fraction was analyzed by LC/MS.

The target of test [1] is human KHK-C in engineered HepG2 cells (Homo sapiens (Human), UniProt P50053). Put plainly: Cell-based potency assay (KHK-C-overexpressing HepG2 assay), F1P by LC/MS. Particulars: fructose 30 mM, 5 min, F1P produced, geomean. The method, then: Testing inhibition effect of compounds against human KHK-C in engineered HepG2 cells.
Engineered HepG2 cells were generated using methods known to those of skill in the art. Briefly, HepG2 cells were incubated with lentivirus carrying a transgene encoding human KHK-C, and grown under antibiotic selection.
KHK-C-overexpressing HepG2 cells were grown in RPMI1640 supplemented media on T-182 cm^2 flask to near confluency (about 25-40×10^6 cells). The growth media was aspirated, the flask was washed with 10 mL PBS, and 4 mL trypsin solution (0.25% (w/v)+0.25% (w/v) EDTA) was added, followed by incubation at 37° C. for 3-5 mins. The cells were pelleted and resuspended in 2 mL complete media.
The cells were then placed in a 96-well plate at 20,000-40,000 cells per well and grown for 20-28 hours at 37° C. to allow adherence.
Inhibitor compounds were diluted in DMSO to 50 μM, then serially diluted with MEM media (ThermoFisher). Final inhibitor concentration ranged from 5000 nM to 0.32 nM.
The RPMI medium was removed from the plate of confluent cells. The plate was then incubated for 35 min at 37° C. with 0.1 mL of the diluted inhibitor compounds in MEM. After, an additional 0.1 mL of the diluted inhibitor compounds in MEM with fructose, or 0.1 mL of MEM media without inhibitor compound and/or fructose; yielding a final concentration of fructose at 30 mM was added. The plate was subsequently incubated for 5 min at 37° C., then placed on ice to stop the reactions.
Next 200 μL of cold 80% (v/v) methanol:water was added to al wells and placed in the −80° C. freezer for 1 hour with an adhesive seal. The plate was vortexed and cell debris removed by centrifugation. To measure F1P produced, the resulting supernatant fraction was analyzed by LC/MS.

human KHK in HepG2 Cells, sequence (P50053 whole entry): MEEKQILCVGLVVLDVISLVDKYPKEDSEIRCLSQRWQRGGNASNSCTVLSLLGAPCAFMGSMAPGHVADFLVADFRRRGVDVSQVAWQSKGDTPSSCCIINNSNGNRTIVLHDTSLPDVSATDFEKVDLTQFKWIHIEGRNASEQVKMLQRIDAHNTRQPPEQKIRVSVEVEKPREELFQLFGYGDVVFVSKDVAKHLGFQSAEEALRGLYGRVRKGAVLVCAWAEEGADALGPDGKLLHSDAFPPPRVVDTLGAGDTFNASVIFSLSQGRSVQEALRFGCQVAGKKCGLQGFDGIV
human KHK-C in engineered HepG2 cells, sequence (P50053 whole entry, stated change not applied): as the sequence (P50053 whole entry) above
Human recombinant KHK-C, sequence (P50053 whole entry): as above
Human recombinant KHK-A, sequence (P50053 other isoform, or with tags, fused parts or gaps): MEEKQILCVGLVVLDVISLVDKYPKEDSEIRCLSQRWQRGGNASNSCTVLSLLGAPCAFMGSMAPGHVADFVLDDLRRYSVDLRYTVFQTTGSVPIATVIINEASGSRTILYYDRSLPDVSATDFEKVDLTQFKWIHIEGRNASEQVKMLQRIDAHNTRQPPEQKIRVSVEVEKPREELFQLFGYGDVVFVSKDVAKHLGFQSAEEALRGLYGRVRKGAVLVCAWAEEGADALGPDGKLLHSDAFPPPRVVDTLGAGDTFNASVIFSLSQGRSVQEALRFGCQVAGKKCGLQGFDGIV
Rat recombinant KHK-C, sequence (Q02974 whole entry): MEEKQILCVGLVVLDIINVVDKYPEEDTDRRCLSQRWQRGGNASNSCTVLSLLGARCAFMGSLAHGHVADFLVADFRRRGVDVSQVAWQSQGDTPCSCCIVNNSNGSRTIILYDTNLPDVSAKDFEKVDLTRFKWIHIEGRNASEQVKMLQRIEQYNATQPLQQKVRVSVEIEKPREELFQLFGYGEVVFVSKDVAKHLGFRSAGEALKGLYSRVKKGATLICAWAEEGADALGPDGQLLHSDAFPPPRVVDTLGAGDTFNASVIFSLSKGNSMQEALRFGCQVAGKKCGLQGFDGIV
Rat recombinant KHK-A, sequence (Q02974 other isoform, or with tags, fused parts or gaps): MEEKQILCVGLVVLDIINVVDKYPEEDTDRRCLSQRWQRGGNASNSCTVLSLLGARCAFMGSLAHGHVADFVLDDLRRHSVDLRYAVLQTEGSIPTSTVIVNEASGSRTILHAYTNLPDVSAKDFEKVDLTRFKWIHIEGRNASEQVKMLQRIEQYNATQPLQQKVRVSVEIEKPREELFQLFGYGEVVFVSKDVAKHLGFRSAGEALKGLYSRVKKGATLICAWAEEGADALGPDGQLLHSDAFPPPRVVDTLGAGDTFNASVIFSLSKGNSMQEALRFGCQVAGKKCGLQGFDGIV

As for `Cc1c(-c2cnn(CC(=O)N3CCNCC3)c2)nc(N2CC[C@@H]2C)nc1C(F)(F)F` [Compound A3, 2-(4-{2-[(S)-2-methyl-1-azetidinyl]-5-methyl-6-(trifluoromethyl)-4-pyrimidinyl}-1-pyrazolyl)-1-(1-piperazinyl)-1-ethanone], the half-maximal inhibitory concentration (IC50) was 4.6 nM on Human recombinant KHK-A; 7.48 nM on Human recombinant KHK-C; 2.9 nM on Rat recombinant KHK-A; 8.3 nM at Rat recombinant KHK-C; 25 nM at human KHK in HepG2 Cells; 186 nM in test [1].

As to `C[C@H]1[C@H](O)CN1c1nc(-c2cnn(C3CN(C)C3)c2)cc(C(F)F)n1` [Compound A9, (2S,3R)-1-{6-(difluoromethyl)-4-[1-(1-methyl-3-azetidinyl)-4-pyrazolyl]-2-pyrimidinyl}-2-methyl-3-azetidinol], the IC50 on Human recombinant KHK-A came to 22 nM; on Human recombinant KHK-C, 40.5 nM; at Rat recombinant KHK-A it was 10 nM; on Rat recombinant KHK-C, 37 nM; in test [1], 184 nM.

Regarding `Cc1c(-c2cnn(C3CN(C)C3)c2)nc(N2C[C@@H](O)[C@@H]2C)nc1C(F)(F)F` [Compound A12, (2S,3R)-2-methyl-1-{5-methyl-4-[1-(1-methyl-3-azetidinyl)-4-pyrazolyl]-6-(trifluoromethyl)-2-pyrimidinyl}-3-azetidinol], the IC50 on Human recombinant KHK-A worked out at 4.1 nM; on Human recombinant KHK-C, 1.05 nM; at Rat recombinant KHK-A, 1.3 nM; at Rat recombinant KHK-C, 3.3 nM; at human KHK in HepG2 Cells, 1 nM; in test [1], 33.5 nM.

On to `Cc1c(-c2cnn(C3CN(C)C3)c2)nc(N2C[C@@H](O)[C@@H]2C)nc1C(F)F` [Compound A21, (2S,3R)-1-{6-(difluoromethyl)-5-methyl-4-[1-(1-methyl-3-azetidinyl)-4-pyrazolyl]-2-pyrimidinyl}-2-methyl-3-azetidinol], for which the IC50 on Human recombinant KHK-A came to 2.05 nM; at Human recombinant KHK-C, 1.5 nM; on Rat recombinant KHK-A, 1.46 nM; at Rat recombinant KHK-C, 3.33 nM; at human KHK in HepG2 Cells, 2 nM; in test [1], 36.5 nM.

Take `Cc1c(-c2cnn(C3CNC3)c2)nc(N2C[C@@H](O)[C@@H]2C)nc1C(F)F` [Compound A35, (2S,3R)-1-{4-[1-(3-azetidinyl)-4-pyrazolyl]-6-(difluoromethyl)-5-methyl-2-pyrimidinyl}-2-methyl-3-azetidinol]: the IC50 on Human recombinant KHK-A worked out at 1.9 nM; on Human recombinant KHK-C, 4.85 nM; at Rat recombinant KHK-A, 4.1 nM; at Rat recombinant KHK-C it was 7.7 nM; on human KHK in HepG2 Cells, 9 nM; in test [1] it was 82 nM.

As for `Cc1c(-c2cnn(CC(=O)N3CCNCC3)c2)nc(N2CC[C@@H]2C(F)F)nc1C(F)F` [Compound A42, 2-(4-{2-[(R)-2-(difluoromethyl)-1-azetidinyl]-6-(difluoromethyl)-5-methyl-4-pyrimidinyl}-1-pyrazolyl)-1-(1-piperazinyl)-1-ethanone], the IC50 at Human recombinant KHK-A came to 13 nM; at Human recombinant KHK-C it was 18.3 nM; on Rat recombinant KHK-A, 10 nM; on Rat recombinant KHK-C, 26 nM; against human KHK in HepG2 Cells, 43 nM.

Take `Cc1c(-c2cnn(CC(=O)N3CCNCC3)c2)nc(N2CC[C@@H]2C(F)F)nc1C(F)(F)F` [Compound A43, 2-(4-{2-[(R)-2-(difluoromethyl)-1-azetidinyl]-5-methyl-6-(trifluoromethyl)-4-pyrimidinyl}-1-pyrazolyl)-1-(1-piperazinyl)-1-ethanone]: the IC50 on Human recombinant KHK-A is 4.5 nM; on Human recombinant KHK-C, 8.03 nM; at Rat recombinant KHK-A, 6.8 nM; at Rat recombinant KHK-C, 12 nM; against human KHK in HepG2 Cells, 23 nM.

On to `C[C@H]1CCN1c1nc(-c2cnn(CC(=O)N3CCNCC3)c2)cc(C(F)(F)F)n1` [Compound C2, reference compound], for which the figures for the IC50 (against human KHK in HepG2 Cells; in test [1]) were 91 nM and 457 nM, respectively.

Take `C[C@H]1[C@H](O)CN1c1nc(-c2cnn(C3CN(C)C3)c2)cc(C(F)(F)F)n1` [Compound C3, reference compound]: the IC50 was 4 nM against human KHK in HepG2 Cells and 191 nM in test [1].

In general, IC50 refers to the concentration at which inhibition is half-maximal.
